This note sets out measurements from patent US20230203043A1, “NOVEL IMIDAZOPYRAZINE DERIVATIVES” (Hoffmann-La Roche Inc., priority 2020, published 2023).

Where a name gives a salt, the structure may show the parent alone.

The first experiment relates to Acinetobacter baumannii ATCC17961. The experiment can be described thus: Antimicrobial susceptibility testing: 90% growth inhibitory concentration (IC90) determination in Iso-Sensitest broth, OD600 growth. The experiment is classed as cell-based. Conditions: Acinetobacter baumannii, ATCC17961, 16 h, read-out: A. baumannii ATCC 17961 IC90 (uM), strain ATCC 17961, OD600 growth over 16 h. The method, boiled down:
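Compounds were twofold serially diluted in DMSO across 10 points (e.g. 50 to 0.097 μM final) and inoculated at ~5×10^(5) CFU/ml. Plates incubated at 35±2° C, with OD600 read every 20 minutes over 16 h. IC90 was derived from growth inhibition during logarithmic growth.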
What is called IC90 is the concentration at which the effect reaches the 90% level. Consider `CCc1cc(Nc2nccn3c(-c4cn(C)nc4C(F)(F)F)cnc23)ccc1C(=O)NCCNC(=O)[C@@H]1C[C@@](O)(CC)CN1` [Example 446, (2S,4S)-4-ethyl-N-[2-[[2-ethyl-4-[[3-[1-methyl-3-(trifluoromethyl)pyrazol-4-yl]imidazo[1,2-a]pyrazin-8-yl]amino]benzoyl]amino]ethyl]-4-hydroxypyrrolidine-2-carboxamide formate], for which the IC90 came to 2.27 µM.

As for `Cc1cc(Nc2nccn3c(-c4cn(CC#N)nc4C(F)(F)F)cnc23)ccc1C(=O)N[C@H](C)C(=O)NC1CC(N)C1` (stereo partly drawn) [Example 725, N-[(1R)-2[(3-aminocyclobutyl)amino]-1-methyl-2-oxo-ethyl]-4-[[3-[1-(cyanomethyl)-3-(trifluoromethyl)pyrazol-4-yl]imidazo[1,2-a]pyrazin-8-yl]amino]-2-methyl-benzamide formate], the IC90 was determined as 0.462 µM.

In the case of `CCc1cc(Nc2nccn3c(-c4cn(CC(O)CCO)nc4C(F)(F)F)cnc23)ccc1C(=O)NCCOCCN` (stereo not drawn) [Example 315, N-[2-(2-aminoethoxy)ethyl]-4-[[3-[1-(2,4-dihydroxybutyl)-3-(trifluoromethyl)pyrazol-4-yl]imidazo[1,2-a]pyrazin-8-yl]amino]-2-ethylbenzamide formate], the IC90 came to 1.46 µM.

Regarding `CCc1cc(Nc2nccn3c(-c4cn(CCOC)nc4C(F)(F)F)cnc23)ccc1C(=O)NCCOCCN` [Example 34, N-[2-(2-aminoethoxy)ethyl]-2-ethyl-4-[[3-[1-(2-methoxyethyl)-3-(trifluoromethyl)pyrazol-4-yl]imidazo[1,2-a]pyrazin-8-yl]amino]benzamide formate], the 90% effect concentration (IC90) came out at 0.367 µM.

For `CCc1cc(Nc2nccn3c(-c4cn(CC(F)F)nc4C(F)(F)F)cnc23)ccc1C(=O)NCC(=O)NCC1(O)CCNCC1` [Example 551, 4-[[3-[1-(2,2-difluoroethyl)-3-(trifluoromethyl)pyrazol-4-yl]imidazo[1,2-a]pyrazin-8-yl]amino]-2-ethyl-N-[2-[(4-hydroxy-4-piperidyl)methylamino]-2-oxo-ethyl]benzamide formate], the concentration for an effect of 90% (IC90) is 0.357 µM.

Consider `CCc1cc(Nc2nccn3c(-c4cn(CC#N)nc4C(F)(F)F)cnc23)ccc1C(=O)NCCNC(=O)CCCN` [Example 540, N-(2-(4-aminobutanamido)ethyl)-4-((3-(1-(cyanomethyl)-3-(trifluoromethyl)-1H-pyrazol-4-yl)imidazo[1,2-a]pyrazin-8-yl)amino)-2-ethylbenzamide formate], for which the IC90 amounted to 0.249 µM.

Consider `CCc1cc(Nc2nccn3c(-c4cn(CC=C(C)C)nc4C(F)(F)F)cnc23)ccc1C(=O)NCCOCCN` [Example 614, N-(2-(2-aminoethoxy)ethyl)-2-ethyl-4-((3-(1-(3-methylbut-2-en-1-yl)-3-(trifluoromethyl)-1H-pyrazol-4-yl)imidazo[1,2-a]pyrazin-8-yl)amino)benzamide formate], for which the IC90 stood at 0.11 µM.

For the molecule `O=C(CC1CCNCC1)N1CCN(C(=O)c2ccc(Nc3nccn4c(-c5c[nH]nc5C(F)(F)F)cnc34)cc2Cl)CC1` [Example 570, 1-(4-(2-chloro-4-((3-(3-(trifluoromethyl)-1H-pyrazol-4-yl)imidazo[1,2-a]pyrazin-8-yl)amino)benzoyl)piperazin-1-yl)-2-(piperidin-4-yl) ethan-1-one formate], the IC90 is 0.256 µM.

Regarding `Cn1cc(Cn2cc(-c3cnc4c(Nc5ccc(C(=O)N6CCNCC6)c(Cl)c5)nccn34)c(C(F)(F)F)n2)cn1` [Example 134, [2-chloro-4-[[3-[1-[(1-methylpyrazol-4-yl)methyl]-3-(trifluoromethyl)pyrazol-4-yl]imidazo[1,2-a]pyrazin-8-yl]amino]phenyl]-piperazin-1-ylmethanone formate], the 90% effect concentration (IC90) came out at 0.768 µM.

As to `C=CCn1cc(-c2cnc3c(Nc4ccc(C(=O)NCCOCCN)c(CC)c4)nccn23)c(C(F)(F)F)n1` [Example 272, N-[2-(2-aminoethoxy)ethyl]-2-ethyl-4-[[3-[1-prop-2-enyl-3-(trifluoromethyl)pyrazol-4-yl]imidazo[1,2-a]pyrazin-8-yl]amino]benzamide formate], the IC90 was 0.085 µM.

Regarding `N[C@H]1CCN(C(=O)N2CCN(C(=O)c3ccc(Nc4nccn5c(-c6c[nH]nc6C(F)(F)F)cnc45)cc3Cl)CC2)C1` [Example 328, [4-[(3S)-3-aminopyrrolidine-1-carbonyl]piperazin-1-yl]-[2-chloro-4-[[3-[3-(trifluoromethyl)-1H-pyrazol-4-yl]imidazo[1,2-a]pyrazin-8-yl]amino]phenyl]methanone formate], the IC90 stood at 0.157 µM.

Regarding `Cc1cc(Nc2nccn3c(-c4cn(CC#N)nc4C(F)(F)F)cnc23)ccc1C(=O)NCCNC(=O)[C@@H]1C[C@@H](O)CN1` [Example 375, (2S,4R)-N-[2-[[4-[[3-[1-(cyanomethyl)-3-(trifluoromethyl)pyrazol-4-yl]imidazo[1,2-a]pyrazin-8-yl]amino]-2-methylbenzoyl]amino]ethyl]-4-hydroxypyrrolidine-2-carboxamide formate], the IC90 came out at 0.338 µM.

Consider `CCc1cc(Nc2nccn3c(-c4cn(CC(F)F)nc4C(F)(F)F)cnc23)ccc1C(=O)NCCCNC(=O)[C@@H](C)N` [Example 633, (R)-N-(3-(2-aminopropanamido)propyl)-4-((3-(1-(2,2-difluoroethyl)-3-(trifluoromethyl)-1H-pyrazol-4-yl)imidazo[1,2-a]pyrazin-8-yl)amino)-2-ethylbenzamide formate], for which the IC90 amounted to 0.214 µM.

On to `CCc1cc(Nc2nccn3c(-c4c[nH]nc4C(F)(F)F)cnc23)ccc1C(=O)NCCCNC(=O)[C@@H]1C[C@@H](O)CN1` [Example 434, (2S,4R)-N-[3-[[2-ethyl-4-[[3-[3-(trifluoromethyl)-1H-pyrazol-4-yl]imidazo[1,2-a]pyrazin-8-yl]amino]benzoyl]amino]propyl]-4-hydroxypyrrolidine-2-carboxamide formate], for which the concentration for an effect of 90% (IC90) came to 0.463 µM.

Regarding `Cc1cc(Nc2nccn3c(-c4cn(CC#N)nc4C(F)(F)F)cnc23)ccc1C(=O)N1CCN(C(=O)N[C@H]2CNC[C@@H]2O)CC1` [Example 376, 4-[4-[[3-[1-(cyanomethyl)-3-(trifluoromethyl)pyrazol-4-yl]imidazo[1,2-a]pyrazin-8-yl]amino]-2-methylbenzoyl]-N-[(3S,4S)-4-hydroxypyrrolidin-3-yl]piperazine-1-carboxamide formate], the IC90 is 0.43 µM.

`CCc1cc(Nc2nccn3c(-c4cn(CC5CCC5)nc4C(F)(F)F)cnc23)ccc1C(=O)NCCOCCN` [Example 303, N-[2-(2-aminoethoxy)ethyl]-4-[[3-[1-(cyclobutylmethyl)-3-(trifluoromethyl)pyrazol-4-yl]imidazo[1,2-a]pyrazin-8-yl]amino]-2-ethylbenzamide formate]: the IC90 was 0.201 µM.

Still in this experiment, the particulars now being: Acinetobacter baumannii, ATCC17961, 16 h, strain ATCC 17961, OD600 growth over 16 h, read-out: A. baumannii ATCC 17961 IC90.
For `CCNC(=O)c1ccc(Nc2nccn3c(-c4c[nH]nc4C(F)(F)F)cnc23)cc1CC` [Example 280, N,2-diethyl-4-[[3-[3-(trifluoromethyl)-1H-pyrazol-4-yl]imidazo[1,2-a]pyrazin-8-yl]amino]benzamide], the IC90 worked out at 0.517 µM.

For `CCc1cc(Nc2nccn3c(-c4c[nH]nc4C(F)(F)F)cnc23)ccc1C(=O)N[C@H](C)CNC(=O)[C@@H]1C[C@@H](O)CN1` [Example 782, (2S,4R)-N-((R)-2-(2-ethyl-4-((3-(3-(trifluoromethyl)-1H-pyrazol-4-yl)imidazo[1,2-a]pyrazin-8-yl)amino)benzamido)propyl)-4-hydroxypyrrolidine-2-carboxamide], the 90% effect concentration (IC90) worked out at 1.15 µM.

Regarding `C#CC(C)n1cc(-c2cnc3c(Nc4ccc(C(=O)N5CCN(C(=O)[C@H]6C[C@H](O)CN6)CC5)c(CC)c4)nccn23)c(C(F)F)n1` (stereo in doubt) [Example 787, (4-(4-((3-(1-(but-3-yn-2-yl)-3-(difluoromethyl)-1H-pyrazol-4-yl)imidazo[1,2-a]pyrazin-8-yl)amino)-2-ethylbenzoyl)piperazin-1-yl)((2R,4S)-4-hydroxypyrrolidin-2-yl)methanone (mixture of epimers)], the IC90 came to 1.57 µM.

In the case of `C#CCNC(=O)c1c(C)cc(Nc2nccn3c(-c4cn(Cc5nc(CC6CC6)no5)nc4C(F)(F)F)cnc23)cc1F` [Example 38, 4-[[3-[1-[[3-(cyclopropylmethyl)-1,2,4-oxadiazol-5-yl]methyl]-3-(trifluoromethyl)pyrazol-4-yl]imidazo[1,2-a]pyrazin-8-yl]amino]-2-fluoro-6-methyl-N-prop-2-ynylbenzamide], the IC90 was 0.327 µM.

Take `CCc1cc(Nc2nccn3c(-c4cn(CC#N)nc4C(F)(F)F)cnc23)ccc1C(=O)N[C@H](C)CNC(=O)[C@@H]1C[C@@H](O)CN1` [Example 712, (2S,4R)-N-((R)-2-(4-((3-(1-(cyanomethyl)-3-(trifluoromethyl)-1H-pyrazol-4-yl)imidazo[1,2-a]pyrazin-8-yl)amino)-2-ethylbenzamido)propyl)-4-hydroxypyrrolidine-2-carboxamide]: the IC90 turned out to be 0.41 µM.

Consider `NCCCNC(=O)c1ccc(Nc2nccn3c(-c4c[nH]nc4C(F)(F)F)cnc23)cc1Cl` [Example 364, N-(3-aminopropyl)-2-chloro-4-[[3-[3-(trifluoromethyl)-1H-pyrazol-4-yl]imidazo[1,2-a]pyrazin-8-yl]amino]benzamide], for which the IC90 was found to be 1.13 µM.

For the molecule `CCc1cc(Nc2nccn3c(-c4cn(COC)nc4C(F)F)cnc23)ccc1C(=O)N1CCN(C(=O)[C@H](C)N)CC1` [Example 767, (S)-2-amino-1-(4-(4-((3-(3-(difluoromethyl)-1-(methoxymethyl)-1H-pyrazol-4-yl)imidazo[1,2-a]pyrazin-8-yl)amino)-2-ethylbenzoyl)piperazin-1-yl)propan-1-one], the concentration for an effect of 90% (IC90) was 0.904 µM.

Regarding `O=C(CN1CCN(C(=O)c2ccc(Nc3nccn4c(-c5cn(CC(F)F)nc5C(F)(F)F)cnc34)cc2Cl)CC1)N[C@@H]1CCNC1` [Example 601, (R)-2-(4-(2-chloro-4-((3-(1-(2,2-difluoroethyl)-3-(trifluoromethyl)-1H-pyrazol-4-yl)imidazo [1,2-a]pyrazin-8-yl)amino)benzoyl)piperazin-1-yl)-N-(pyrrolidin-3-yl) acetamide formate], the IC90 worked out at 0.422 µM.
